How the values were obtained:
Test in all cases: relative viability (nuclei count vs DMSO), 5 days (fraction); higher = more cells survive
[1] = compound: CCN1C(=O)C2=CC(=C(N=C2N(C1=O)C3CC3)N)C(=O)N + CC(C)C[C@H](NC(=O)[C@H](Cc1ccccc1)NC(=O)c1cnccn1)B(O)O [Bortezomib] (partner 0.002 µM)
Outline: (§1)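 Relative viability was taken as the ratio of nuclei in treated wells to nuclei in vehicle wells. Lung cancer cell lines in 1536-well plates received compounds by pin tool one day after seeding, either one drug alone or a fixed anchor-drug dose plus five library-drug doses (not always all listed) in √10 steps. Nuclei were counted on 4× images after 5 days of treatment, and values are medians of duplicate plates.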

[2] = compound: CCN1C(=O)C2=CC(=C(N=C2N(C1=O)C3CC3)N)C(=O)N + C[C@]1(O)C[C@@H](c2nc(-c3ccc4ccc(-c5ccccc5)nc4c3)c3c(N)nccn32)C1 [Linsitinib] (partner 1 µM)
Outline: as §1

[3] = compound: CCN1C(=O)C2=CC(=C(N=C2N(C1=O)C3CC3)N)C(=O)N + Cc1cc(Nc2cc(N3CCN(C)CC3)nc(Sc3ccc(NC(=O)C4CC4)cc3)n2)n[nH]1 [Tozasertib] (partner 0.1 µM)
Outline: as §1

[4] = compound: CCN1C(=O)C2=CC(=C(N=C2N(C1=O)C3CC3)N)C(=O)N + N=C(N)NC(=N)NCCc1ccccc1 [Phenformin] (partner 250 µM)
Outline: as §1

[5] = compound: CCN1C(=O)C2=CC(=C(N=C2N(C1=O)C3CC3)N)C(=O)N + Nc1nc2[nH]cc(CCc3ccc(C(=O)N[C@@H](CCC(=O)O)C(=O)O)cc3)c2c(=O)[nH]1 [Pemetrexed] (partner 0.2 µM)
Outline: as §1

Row | Cell Line | relative viability ([1]; first compound 0.253 µM) | relative viability ([1]; first compound 0.8 µM) | relative viability ([1]; first compound 2.53 µM) | relative viability ([1]; first compound 8 µM) | relative viability ([2]; first compound 0.253 µM) | relative viability ([2]; first compound 0.8 µM) | relative viability ([2]; first compound 2.53 µM) | relative viability ([2]; first compound 8 µM) | relative viability ([3]; first compound 0.253 µM) | relative viability ([3]; first compound 0.8 µM) | relative viability ([3]; first compound 2.53 µM) | relative viability ([3]; first compound 8 µM) | relative viability ([4]; first compound 0.253 µM) | relative viability ([4]; first compound 0.8 µM) | relative viability ([4]; first compound 2.53 µM) | relative viability ([4]; first compound 8 µM) | relative viability ([5]; first compound 0.253 µM) | relative viability ([5]; first compound 2.53 µM) | relative viability ([5]; first compound 8 µM) | relative viability ([5]; first compound 0.8 µM)
1 | EMC-BAC-2 | 1.12 | 1.04 | 0.9 | 1.06 | 0.848 | 0.837 | 0.754 | 0.888 | 0.319 | 0.249 | 0.255 | 0.304 | 0.597 | 0.478 | 0.478 | 0.56 | 0.461 | 0.403 | 0.431 | –
2 | NCI-H727 | 0.806 | 0.843 | 0.805 | 0.875 | 0.297 | 0.354 | 0.282 | 0.272 | 0.534 | 0.71 | 0.608 | 0.603 | 0.625 | 0.455 | 0.459 | 0.666 | – | – | – | –
3 | LU99A | 1.25 | 1.16 | 1.06 | 1.19 | 0.594 | 0.578 | 0.51 | 0.626 | 0.307 | 0.277 | 0.252 | 0.238 | 0.778 | 0.915 | 0.77 | 0.72 | 0.174 | 0.168 | 0.184 | 0.187
4 | LK-2 | – | – | – | – | 0.575 | 0.612 | 0.655 | 0.616 | 0.184 | 0.173 | 0.149 | 0.161 | 0.375 | 0.591 | 0.408 | 0.535 | 0.3 | 0.303 | 0.301 | 0.286
5 | NCI-H3122 | 1.04 | 1.01 | 1.02 | 1.01 | 1.04 | 0.96 | 0.982 | 1.06 | 0.393 | 0.369 | 0.376 | 0.533 | 0.401 | 0.393 | 0.394 | 0.358 | 0.217 | 0.202 | 0.192 | 0.198
6 | NCI-H2347 | 0.982 | 0.933 | 1.19 | 0.778 | 1.04 | 1.03 | 0.925 | 0.845 | 0.666 | 0.61 | 0.572 | 0.482 | 0.373 | 0.424 | 0.547 | 0.418 | 0.458 | 0.421 | 0.447 | 0.442
7 | NCI-H1563 | 0.919 | 0.871 | 0.83 | 0.681 | 1.17 | 1.1 | 1.26 | 1.04 | – | – | – | – | 0.653 | 0.611 | 0.651 | 0.639 | 0.762 | 0.965 | 0.742 | 0.799
8 | HCC-827 | 1.06 | 1.11 | 1.06 | 0.972 | 0.954 | 0.97 | 0.899 | 0.979 | 0.395 | 0.387 | 0.457 | 0.445 | 0.439 | 0.383 | 0.382 | 0.382 | 0.259 | 0.224 | 0.264 | 0.268
9 | NCI-H1666 | 0.739 | 0.692 | 0.848 | 0.74 | 0.805 | 0.766 | 0.792 | 0.779 | – | 0.608 | 0.584 | 0.618 | – | 0.562 | 0.58 | 0.558 | 0.844 | 0.812 | 0.799 | 0.879
10 | NCI-H358 | – | – | – | – | 0.718 | 0.852 | 0.682 | 0.808 | 0.0962 | 0.114 | 0.0945 | 0.119 | 0.355 | 0.351 | 0.388 | 0.298 | 0.172 | 0.188 | 0.164 | 0.181
11 | 201T | 1.1 | 1.07 | 1.09 | 1.05 | 1 | 0.991 | 0.952 | 1.01 | 1.01 | 0.993 | 0.973 | 1.04 | 0.478 | 0.474 | 0.442 | 0.47 | 0.328 | 0.34 | 0.313 | 0.309
12 | RERF-LC-KJ | 1.01 | 1.03 | 1.02 | 1.01 | 0.846 | 0.864 | 0.843 | 0.817 | 0.498 | 0.499 | 0.479 | 0.441 | 0.424 | 0.411 | 0.392 | 0.413 | 0.473 | 0.472 | 0.481 | 0.448
13 | NCI-H2405 | 1 | 1.05 | 1.01 | 0.952 | 1.05 | 0.954 | 1.04 | 0.988 | 0.823 | 0.777 | 0.757 | 0.732 | 0.379 | 0.388 | 0.381 | 0.395 | 1.1 | 1.14 | 1.03 | –
14 | LXF-289 | 0.987 | 0.997 | 0.966 | 0.994 | 0.968 | 0.96 | 0.833 | 0.958 | 0.127 | 0.26 | 0.206 | 0.201 | 0.519 | 0.552 | 0.519 | 0.538 | 0.917 | 0.895 | 0.993 | 0.889
15 | EKVX | 1.18 | 1.14 | 1.07 | 0.901 | 1.03 | 1.03 | 0.934 | 0.998 | 0.359 | 0.494 | 0.358 | 0.384 | 0.256 | 0.248 | 0.316 | 0.231 | 0.397 | 0.282 | 0.351 | 0.414
16 | A-427 | 0.938 | 0.963 | 0.965 | 0.956 | 1.24 | 1.11 | 1.04 | 1.1 | 0.223 | 0.226 | 0.208 | 0.206 | 0.376 | 0.307 | 0.376 | 0.343 | 0.952 | 1.08 | 0.927 | 0.927
17 | IA-LM | 0.826 | 0.702 | 0.807 | 0.817 | 0.629 | 0.618 | 0.492 | 0.553 | – | – | – | – | – | – | – | – | – | – | – | –

From the supplement of paper PMC10307832
